In patent US6913895B1, “Methods for assaying transglycosylase reactions, and for identifying inhibitors thereof” (Advanced Medicine East, Inc., priority 1999, dated 2005):
≈ marks a conversion by molar mass, not a printed value. Entries after “also recorded” stand apart in the source; their conditions may differ. Like-named read-outs stand apart in the source and are kept apart here. Marks after values point to notes of the source that are not given here.

What was measured:
[1] = tested on: E. faecium 49624; assay type: cell-based
[2] = tested on: E. faecium CL4931 (VanA); assay type: cell-based
[3] = tested on: E. faecalis 29212; assay type: cell-based
[4] = tested on: E. faecalis CL4877 (VanB); assay type: cell-based
[5] = tested on: S. aureus 29213; assay type: cell-based
[6] = tested on: transglycosylase; assay: Transglycosylase assay: peptidoglycan formation from lipid II accumulated in situ in bacterial membranes; assay type: biochemical, E. coli; conditions: for inhibition of peptidoglycan formation: inhibitor added after formation of lipid II, Triton X-100 removed, 2 hours incubation, paper chromatography
Experimental: Reactions were performed in the following buffer: 50 mM Tris (pH=8.0), 42 mM MgAc, 208 mM KCl, and 0.1% Triton X-100®. Each reaction was performed in a 50 ul reaction volume, containing 25 μg French Pressed bacterial membranes, 0.5 nmoles biotinylated UDP-MurNAc-pentapeptide 10% DMSO final concentration (added in conjunction with inhibitor), and 0.5 uM 14C-GlcNAc (≈20,000 CPM). All components except 14C-GlcNAc were pre-incubated together for 10 min at room temperature. The reactions were incubated an additional 1 hour after addition of ^14C-GlcNAc.
To make the reaction volume more manageable, the Triton was removed with the addition of Detergent-Out resin (Geno-Technology, St. Louis, Mo.). After binding up the inhibiting detergent, the reaction was further incubated for 2 hours to allow for transglycosylation to proceed.
The above-described methods of the invention were used to analyze the activity of three inhibitors. The assay included separate samples of tunicamycin, moenomycin, or bacitracin in various concentrations. These inhibitors were added to their respective samples after formation of lipid II, with the subsequent removal of the transglycosylation blocker Triton X-100®. After 2 hours incubation, aliquots of the solubilized products were analyzed by ascending paper chromatography. The amount of lipid II converted into peptidoglycan is represented by the amount of radioactivity measured in CPM remaining at the origin for each reaction.
Compounds TS0517 (chlorobiphenyl-vancomycin), TS0518 (chlorobiphenyl-desleucyl-vancomycin), TS0523, TS1017, and TS30663 were all assayed using the above-described assay, in which the inhibitors were added to their respective samples after formation of lipid II, with the subsequent removal of Triton X-100®. After 2 hours incubation, aliquots of the solubilized products were analyzed by ascending paper chromatography.

[7] = tested on: lipid II formation; assay: Lipid II formation assay in bacterial membranes; assay type: biochemical, E. coli; conditions: for inhibition of lipid II formation: inhibitors added with labeled UDP-GlcNAc and UDP-MurNAc-tetrapeptide (data not shown)
[8] = tested on: transglycosylase; assay: Transglycosylase assay: peptidoglycan formation from lipid II accumulated in situ in bacterial membranes; assay type: biochemical, E. coli; conditions: UDP-MurNAc-tetrapeptide substrate, inhibitors added after Triton X-100 removal, 2 hour incubation
[9] = tested on: peptidoglycan synthesis; conditions: at 100 μg/ml, A. viridens membranes; cited from earlier work
[10] = E. faecium 49624, vancomycin-sensitive
[11] = E. faecium CL4931 (VanA), vancomycin resistant
[12] = E. faecalis 29212, vancomycin-sensitive
[13] = E. faecalis CL4877 (VanB), vancomycin resistant
[14] = S. aureus 29213, vancomycin-sensitive

| Compound | MIC [1, 10] | MIC [2, 11] [µg/mL] | MIC [3, 12] [µg/mL] | MIC [4, 13] [µg/mL] | MIC [5, 14] [µg/mL] | inhibition of peptidoglycan formation [6] | inhibition of lipid II formation [7] | inhibition of peptidoglycan synthesis [8] | MIC ([1]; Enterococcus faecium, 49624) [µg/mL] | MIC ([2]; Enterococcus faecium) [µg/mL] | MIC ([3]; Enterococcus faecalis, 29212) [µg/mL] | MIC ([4]; Enterococcus faecalis) [µg/mL] | MIC ([5]; Staphylococcus aureus, 29213) [µg/mL] | inhibition of lipid II formation in vitro ([7]; substrate with D-ala-D-ala dipeptide moiety) | potency in E. coli system relative to that measured in Allen et al. using A. viridens ([6]; UDP-MurNAc-pentapeptide or UDP-MurNAc-tetrapeptide) | inhibition of peptidoglycan synthesis, UDP-MurNAc-pentapeptide vs UDP-MurNAc-tetrapeptide ([6]; comparison of the two precursor substrates) | IC50 / effect compared with assay without transglycosylation blocker ([6]; with vs without Triton X-100 blocker) | inhibition of peptidoglycan synthesis [9] [%] | inhibition of peptidoglycan formation ([6]; listed as tunicamycin) |
| --- | --- | --- | --- | --- | --- | --- | --- | --- | --- | --- | --- | --- | --- | --- | --- | --- | --- | --- | --- |
| C[C@@H]1O[C@@H](O[C@H]2[C@H](Oc3c4cc5cc3Oc3ccc(cc3Cl)[C@@H](O)[C@@H](N)C(=O)N[C@@H](CC(N)=O)C(=O)N[C@H]5C(=O)NC3C(=O)NC(C(=O)N[C@H](C(=O)O)c5cc(O)cc(O)c5-c5cc3ccc5O)[C@H](O)c3ccc(c(Cl)c3)O4)O[C@H](CO)[C@@H](O)[C@@H]2O)C[C@](C)(NCc2ccc(-c3ccc(Cl)cc3)cc2)[C@@H]1O (mixture of isomers) [CBP-dl-vancomycin, chlorobiphenyl-desleucyl-vancomycin] | 1.56 µg/mL (≈ 1.02 µM) | 12.5 (≈ 8.21 µM) | 3.12 (≈ 2.05 µM) | 25 (≈ 16.4 µM) | 3.12 (≈ 2.05 µM) | showed inhibition of peptidoglycan formation | no inhibition of lipid II formation | far more effective |  |  |  |  |  |  |  |  |  |  |  |
| CN[C@H](CC(C)C)C(=O)N[C@H]1C(=O)N[C@@H](CC(N)=O)C(=O)N[C@H]2C(=O)N[C@H]3C(=O)N[C@H](C(=O)N[C@H](C(=O)O)c4cc(O)cc(O)c4-c4cc3ccc4O)[C@H](O)c3ccc(c(Cl)c3)Oc3cc2cc(c3O[C@@H]2O[C@H](CO)[C@@H](O)[C@H](O)[C@H]2O[C@H]2C[C@](C)(NCc3ccc(-c4ccc(Cl)cc4)cc3)[C@H](O)[C@H](C)O2)Oc2ccc(cc2Cl)[C@H]1O [CBP-vancomycin, chlorobiphenyl-vancomycin] | 0.062 µg/mL (≈ 0.0376 µM) | 12.5 (≈ 7.58 µM) | 0.25 (≈ 0.152 µM) | 12.5 (≈ 7.58 µM) | 0.25 (≈ 0.152 µM) | showed inhibition of peptidoglycan formation | no inhibition of lipid II formation | far more effective |  |  |  |  |  |  |  |  |  |  |  |
| CN[C@H](CC(C)C)C(=O)N[C@H]1C(=O)N[C@@H](CC(N)=O)C(=O)N[C@H]2C(=O)N[C@H]3C(=O)N[C@H](C(=O)N[C@H](C(=O)O)c4cc(O)cc(O)c4-c4cc3ccc4O)[C@H](O)c3ccc(c(Cl)c3)Oc3cc2cc(c3O[C@@H]2O[C@H](CO)[C@@H](O)[C@H](O)[C@H]2O[C@H]2C[C@](C)(N)[C@H](O)[C@H](C)O2)Oc2ccc(cc2Cl)[C@H]1O [Vancomycin, vancomycin] |  |  |  |  |  |  |  | only minimal inhibition | 1.25 (≈ 0.863 µM) | 1250 (≈ 863 µM) | 3.12 (≈ 2.15 µM) | 1250 (≈ 863 µM) | 1.25 (≈ 0.863 µM) | capable of inhibiting the formation of lipid II in vitro |  |  |  |  |  |
| moenomycin | >200^c μg/ml | 0.25 | 0.078 | 0.13 | 0.05 | sensitive |  |  |  |  |  |  |  |  | 4 orders of magnitude | equipotent inhibition | identical IC50 values; also recorded: substantially the same | < 35 |  |
| tunicamycin |  |  |  |  |  | no measurable effect |  |  |  |  |  |  |  |  |  |  |  |  | had no effect |
